Experimental data as given in patent US20240115575A1, “PHARMACEUTICAL COMPOSITION OF MULTI-TARGET PROTEIN KINASE INHIBITORS, AND USE THEREOF” (CSPC Zhongqi Pharmaceutical Technology (Shijiazhuang) Co., …, priority 2020, published 2024).

Columns and labels:
ALK = ALK (Homo sapiens, UniProt Q9UM73); assay: Evaluation of the inhibitory activity of kinase; type: biochemical
Protocol: (§1) The samples of the salt obtained in Preparation Example 2 were tested according to the evaluation of the inhibitory activity of kinase described under Biological Assessment of the Patent Application No. WO 2011/147066.

BTK = BTK (Homo sapiens, UniProt Q06187); assay: Evaluation of the inhibitory activity of kinase; type: biochemical
Sequence of BTK (Q06187 whole entry): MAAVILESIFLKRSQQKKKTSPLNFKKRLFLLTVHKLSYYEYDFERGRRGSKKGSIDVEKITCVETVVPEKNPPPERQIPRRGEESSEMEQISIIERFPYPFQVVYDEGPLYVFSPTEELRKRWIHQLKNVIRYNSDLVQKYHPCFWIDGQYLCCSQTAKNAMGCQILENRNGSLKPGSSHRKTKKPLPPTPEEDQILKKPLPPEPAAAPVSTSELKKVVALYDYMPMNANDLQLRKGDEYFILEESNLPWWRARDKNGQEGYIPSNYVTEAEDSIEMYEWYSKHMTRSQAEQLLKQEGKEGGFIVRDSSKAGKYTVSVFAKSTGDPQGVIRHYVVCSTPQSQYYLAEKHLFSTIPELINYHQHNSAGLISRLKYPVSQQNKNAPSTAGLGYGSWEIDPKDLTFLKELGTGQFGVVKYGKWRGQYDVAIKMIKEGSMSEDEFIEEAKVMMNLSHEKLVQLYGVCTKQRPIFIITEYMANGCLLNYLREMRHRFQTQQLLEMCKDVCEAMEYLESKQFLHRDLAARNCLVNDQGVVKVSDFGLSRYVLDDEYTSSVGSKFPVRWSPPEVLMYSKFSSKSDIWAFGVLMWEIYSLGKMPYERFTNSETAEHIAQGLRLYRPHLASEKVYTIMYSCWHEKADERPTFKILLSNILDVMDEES
Protocol: as §1

MET = MET (Homo sapiens, UniProt P08581); assay: Evaluation of the inhibitory activity of kinase; type: biochemical
Sequence of MET (P08581 25-1390): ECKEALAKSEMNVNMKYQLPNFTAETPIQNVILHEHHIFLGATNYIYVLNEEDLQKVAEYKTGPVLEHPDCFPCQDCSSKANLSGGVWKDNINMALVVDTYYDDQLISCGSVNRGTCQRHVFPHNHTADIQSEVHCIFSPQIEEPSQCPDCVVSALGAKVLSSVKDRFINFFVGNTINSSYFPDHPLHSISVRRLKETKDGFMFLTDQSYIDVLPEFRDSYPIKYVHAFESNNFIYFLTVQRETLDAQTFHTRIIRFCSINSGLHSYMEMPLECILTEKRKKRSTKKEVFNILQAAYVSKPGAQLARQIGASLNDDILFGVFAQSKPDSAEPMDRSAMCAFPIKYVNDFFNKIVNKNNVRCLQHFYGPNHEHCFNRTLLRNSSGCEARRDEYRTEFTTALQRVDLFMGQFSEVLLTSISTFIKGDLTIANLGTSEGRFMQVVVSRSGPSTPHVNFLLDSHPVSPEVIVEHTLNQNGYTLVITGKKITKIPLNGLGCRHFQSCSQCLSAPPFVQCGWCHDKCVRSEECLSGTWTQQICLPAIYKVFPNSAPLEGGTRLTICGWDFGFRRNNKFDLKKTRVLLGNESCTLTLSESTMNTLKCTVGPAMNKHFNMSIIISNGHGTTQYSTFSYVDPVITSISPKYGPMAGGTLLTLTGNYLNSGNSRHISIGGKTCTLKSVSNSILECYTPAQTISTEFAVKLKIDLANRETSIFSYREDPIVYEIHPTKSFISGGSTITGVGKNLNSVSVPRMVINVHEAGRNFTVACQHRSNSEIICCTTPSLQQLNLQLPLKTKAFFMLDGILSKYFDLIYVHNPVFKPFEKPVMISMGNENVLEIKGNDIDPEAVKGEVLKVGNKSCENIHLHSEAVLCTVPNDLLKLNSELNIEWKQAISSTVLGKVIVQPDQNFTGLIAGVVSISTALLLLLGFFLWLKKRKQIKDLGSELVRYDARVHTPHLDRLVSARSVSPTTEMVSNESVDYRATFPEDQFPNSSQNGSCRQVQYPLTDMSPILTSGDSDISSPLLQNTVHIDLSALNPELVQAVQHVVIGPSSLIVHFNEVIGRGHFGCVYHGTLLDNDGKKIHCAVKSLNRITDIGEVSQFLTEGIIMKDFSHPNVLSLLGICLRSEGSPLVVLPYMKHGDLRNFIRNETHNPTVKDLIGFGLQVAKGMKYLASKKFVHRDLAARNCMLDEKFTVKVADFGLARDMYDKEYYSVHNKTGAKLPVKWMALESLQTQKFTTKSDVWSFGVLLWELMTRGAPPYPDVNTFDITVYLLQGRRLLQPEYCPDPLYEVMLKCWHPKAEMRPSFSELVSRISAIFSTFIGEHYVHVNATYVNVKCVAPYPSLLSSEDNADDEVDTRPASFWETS
Protocol: as §1

PDGFRα = PDGFRα (Homo sapiens, UniProt P16234); assay: Evaluation of the inhibitory activity of kinase; type: biochemical
Sequence of PDGFRα (P16234 24-1089): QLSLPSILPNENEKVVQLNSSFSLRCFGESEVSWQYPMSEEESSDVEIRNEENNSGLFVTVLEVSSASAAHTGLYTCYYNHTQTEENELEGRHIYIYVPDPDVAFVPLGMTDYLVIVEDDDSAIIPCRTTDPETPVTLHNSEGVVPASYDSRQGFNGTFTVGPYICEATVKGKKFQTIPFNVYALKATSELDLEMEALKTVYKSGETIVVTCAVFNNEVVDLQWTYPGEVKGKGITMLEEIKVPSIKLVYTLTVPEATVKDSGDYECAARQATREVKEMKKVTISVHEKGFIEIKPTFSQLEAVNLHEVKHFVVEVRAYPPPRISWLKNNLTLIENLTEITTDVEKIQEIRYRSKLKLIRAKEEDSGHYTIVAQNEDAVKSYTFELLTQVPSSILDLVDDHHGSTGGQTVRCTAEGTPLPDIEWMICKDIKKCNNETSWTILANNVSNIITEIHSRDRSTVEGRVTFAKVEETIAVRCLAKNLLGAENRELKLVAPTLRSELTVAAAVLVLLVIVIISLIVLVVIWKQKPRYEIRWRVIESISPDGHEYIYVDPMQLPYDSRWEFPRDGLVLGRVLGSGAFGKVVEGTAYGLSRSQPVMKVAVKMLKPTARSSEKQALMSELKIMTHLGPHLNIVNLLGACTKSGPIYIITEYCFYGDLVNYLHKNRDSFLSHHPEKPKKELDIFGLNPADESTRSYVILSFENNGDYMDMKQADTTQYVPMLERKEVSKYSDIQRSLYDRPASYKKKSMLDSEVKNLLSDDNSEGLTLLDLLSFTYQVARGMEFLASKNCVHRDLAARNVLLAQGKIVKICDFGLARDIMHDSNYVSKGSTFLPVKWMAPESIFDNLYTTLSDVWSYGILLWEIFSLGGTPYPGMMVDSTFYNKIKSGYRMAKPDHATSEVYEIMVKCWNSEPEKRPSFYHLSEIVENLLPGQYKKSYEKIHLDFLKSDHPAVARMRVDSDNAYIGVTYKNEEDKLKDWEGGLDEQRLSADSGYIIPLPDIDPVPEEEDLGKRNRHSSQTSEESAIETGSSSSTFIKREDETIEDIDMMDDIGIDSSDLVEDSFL
Protocol: as §1

VEGFR2 = VEGFR2 (Homo sapiens, UniProt P35968); assay: Evaluation of the inhibitory activity of kinase; type: biochemical
Protocol: as §1

c-KIT = c-KIT (Homo sapiens, UniProt P10721); assay: Evaluation of the inhibitory activity of kinase; type: biochemical
Protocol: as §1

[1] = system: MV4-11 (FLT3-ITD mutation) subcutaneous tumor; assay: In-vivo anti-tumor test, MV4-11 subcutaneous tumor model; settings: orally administered once daily for 21 days
Protocol: (§2) According to the in-vivo anti-tumor test described under Biological Assessment of the Patent Application No. WO 2011/147066, the samples of the salt obtained in Preparation Example 2 were tested (specifically for FLT3-ITD acute myeloid leukemia, non-small cell lung cancer with EGFR activating mutation, and Ph-positive chronic myeloid leukemia, respectively).

[2] = system: human non-small cell lung cancer HCC827; assay: In-vivo anti-tumor test, non-small cell lung cancer model; settings: orally administered once daily for 30 days
Protocol: as §2

[3] = API-excipient compatibility test; type: physicochemical; settings: 14 days and 28 or 30 days; illumination, 60° C., high humidity; maximum single impurity, total impurity, color
Protocol: The active ingredient (compound of Formula B) was mixed evenly with various excipients mentioned in the present application respectively, and put in 10-ml injection vials. The injection vials were stored for 14 days and 28 days or 30 days under the conditions of an illumination of 4500 lux±500 lux/peripheral humidity, a high temperature of 60° C.±2° C./peripheral humidity, a high humidity of 90%±5% RH, and a temperature of 25° C.±2° C. respectively to detect the impurity content, so as to test the compatibility of the active ingredient with various excipients.

Sequence of ALK (Q9UM73 19-1620): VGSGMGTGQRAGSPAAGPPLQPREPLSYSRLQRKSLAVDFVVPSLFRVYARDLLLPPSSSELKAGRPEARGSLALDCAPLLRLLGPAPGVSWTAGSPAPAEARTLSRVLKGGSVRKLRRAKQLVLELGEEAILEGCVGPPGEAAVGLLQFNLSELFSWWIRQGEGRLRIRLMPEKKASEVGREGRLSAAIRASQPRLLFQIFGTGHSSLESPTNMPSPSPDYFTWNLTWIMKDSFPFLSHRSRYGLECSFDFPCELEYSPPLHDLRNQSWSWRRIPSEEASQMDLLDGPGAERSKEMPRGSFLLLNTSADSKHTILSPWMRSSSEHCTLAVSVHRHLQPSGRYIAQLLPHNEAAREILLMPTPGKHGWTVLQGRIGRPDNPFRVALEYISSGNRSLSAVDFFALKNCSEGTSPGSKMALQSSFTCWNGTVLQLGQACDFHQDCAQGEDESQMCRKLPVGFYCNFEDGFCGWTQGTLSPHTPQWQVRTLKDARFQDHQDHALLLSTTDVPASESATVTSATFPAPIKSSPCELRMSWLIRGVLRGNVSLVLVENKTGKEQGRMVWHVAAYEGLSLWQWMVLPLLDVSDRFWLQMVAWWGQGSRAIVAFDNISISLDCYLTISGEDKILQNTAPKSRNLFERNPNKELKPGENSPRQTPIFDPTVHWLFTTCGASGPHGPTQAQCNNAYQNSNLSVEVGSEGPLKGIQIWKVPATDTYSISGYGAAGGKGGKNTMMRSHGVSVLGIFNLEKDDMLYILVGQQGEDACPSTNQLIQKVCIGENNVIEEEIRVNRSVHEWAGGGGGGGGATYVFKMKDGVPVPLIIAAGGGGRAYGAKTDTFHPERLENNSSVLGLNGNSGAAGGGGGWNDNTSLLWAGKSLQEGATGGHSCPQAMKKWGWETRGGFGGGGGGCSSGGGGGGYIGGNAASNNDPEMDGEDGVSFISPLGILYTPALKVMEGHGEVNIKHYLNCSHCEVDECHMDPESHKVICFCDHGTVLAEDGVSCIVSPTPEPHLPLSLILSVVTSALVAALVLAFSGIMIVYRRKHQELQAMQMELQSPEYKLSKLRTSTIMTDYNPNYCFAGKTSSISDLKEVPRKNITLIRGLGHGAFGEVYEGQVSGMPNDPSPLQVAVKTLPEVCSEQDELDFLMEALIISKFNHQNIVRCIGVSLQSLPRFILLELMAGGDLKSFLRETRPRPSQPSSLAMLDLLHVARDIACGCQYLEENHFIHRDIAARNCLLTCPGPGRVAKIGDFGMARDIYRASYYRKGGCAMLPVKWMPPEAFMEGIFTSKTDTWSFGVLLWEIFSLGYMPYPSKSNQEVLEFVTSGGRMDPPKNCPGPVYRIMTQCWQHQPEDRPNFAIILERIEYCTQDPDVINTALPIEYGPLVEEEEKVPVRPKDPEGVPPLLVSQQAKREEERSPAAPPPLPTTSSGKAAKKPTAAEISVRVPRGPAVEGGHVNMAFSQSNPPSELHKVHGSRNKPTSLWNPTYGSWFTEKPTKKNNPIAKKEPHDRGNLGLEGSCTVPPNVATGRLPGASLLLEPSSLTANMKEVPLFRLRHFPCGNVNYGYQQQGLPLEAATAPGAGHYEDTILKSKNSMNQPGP

- inhibiting the activity of kinase (ALK): capable of inhibiting
- inhibiting the activity of kinase (BTK): capable of inhibiting
- inhibiting the activity of kinase (MET): capable of inhibiting
- inhibiting the activity of kinase (PDGFRα): capable of inhibiting
- inhibiting the activity of kinase (VEGFR2): capable of inhibiting
- inhibiting the activity of kinase (c-KIT): capable of inhibiting
- compatibility of the active ingredient with various excipients [3]: good compatibility
SMILES: CC(C)n1c(Nc2cccnc2)nc2cnc(Nc3ccc(N4CCN(C)CC4)cc3)nc21 [Preparation Example 2]
- effect on tumor growth ([1]; 5 mg/kg): completely inhibit the tumor growth
- effect on tumor growth ([1]; 10 mg/kg): complete tumor regression
- effect on tumor growth ([1]; 20 mg/kg): complete tumor regression
- effect on tumor (compared with the initial tumor) ([2]; 7.5 mg/kg): tumor shrinkage
- effect on tumor (compared with the initial tumor) ([2]; 15 mg/kg): tumor shrinkage
- effect on tumor (compared with the initial tumor) ([2]; 30 mg/kg): almost complete tumor regression
- effect on growth of HCC827, dose dependence ([2]; 7.5, 15 and 30 mg/kg): dose-dependently inhibit the growth
